Measured values from patent publication US20250120967A1, “TYROSINE KINASES INHIBITORS AND USES THEREOF” (GREAT NOVEL THERAPEUTICS BIOTECH & MEDICALS CORPORATION, priority 2023, published 2025).

How the values were obtained:
Test in all cases: Tyrosine kinase inhibition assay
Format in all cases: biochemical
Conditions in all cases: for inhibition at 1 µM: single concentration 1.0 μM, read-out: percent inhibition; for IC50: read-out: IC50 of compound
MERTK (cMER) = target: T1, MERTK (cMER) (Homo sapiens, UniProt Q12866)
T1 sequence (Q12866 21-999): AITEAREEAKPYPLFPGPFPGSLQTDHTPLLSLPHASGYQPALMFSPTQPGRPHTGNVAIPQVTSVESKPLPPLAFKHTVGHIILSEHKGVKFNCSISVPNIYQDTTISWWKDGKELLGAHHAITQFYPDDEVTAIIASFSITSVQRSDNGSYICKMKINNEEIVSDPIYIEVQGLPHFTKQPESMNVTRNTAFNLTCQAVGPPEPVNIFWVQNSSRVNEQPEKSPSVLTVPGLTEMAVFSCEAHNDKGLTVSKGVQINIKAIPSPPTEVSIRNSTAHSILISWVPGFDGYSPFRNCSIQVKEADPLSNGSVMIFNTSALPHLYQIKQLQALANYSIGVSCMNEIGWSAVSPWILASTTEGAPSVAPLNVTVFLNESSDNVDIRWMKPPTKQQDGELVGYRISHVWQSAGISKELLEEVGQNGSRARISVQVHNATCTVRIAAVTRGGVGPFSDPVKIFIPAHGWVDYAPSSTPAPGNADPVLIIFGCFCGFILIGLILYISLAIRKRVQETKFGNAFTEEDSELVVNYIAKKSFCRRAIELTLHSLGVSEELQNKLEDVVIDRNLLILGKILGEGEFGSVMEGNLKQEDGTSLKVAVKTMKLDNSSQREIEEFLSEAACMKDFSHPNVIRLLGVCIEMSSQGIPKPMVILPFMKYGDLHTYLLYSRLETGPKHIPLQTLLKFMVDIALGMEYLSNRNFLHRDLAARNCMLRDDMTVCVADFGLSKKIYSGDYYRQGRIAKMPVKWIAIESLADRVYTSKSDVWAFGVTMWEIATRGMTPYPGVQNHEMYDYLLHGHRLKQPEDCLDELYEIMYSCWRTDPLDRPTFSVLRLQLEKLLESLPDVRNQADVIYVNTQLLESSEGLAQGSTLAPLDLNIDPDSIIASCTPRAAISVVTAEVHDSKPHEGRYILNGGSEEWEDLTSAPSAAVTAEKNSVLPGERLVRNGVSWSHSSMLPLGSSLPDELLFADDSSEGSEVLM
Method: (§1) Tyrosine kinase inhibition assays were performed at ThermoFisher Life Technologies (Madison, WI, USA) using standard protocols (SelectScreen Biochemical Profiling Service, Thermo Fisher Scientific). ATP concentrations used were at the apparent Km. Test compounds were screened in 1% dimethylsulffoxide (DMSO) (final concentration) in the well. For 10-point titrations, 3-fold serial dilutions were conducted from the starting concentration of […]. All Peptide/Kinase Mixtures were diluted to a 2× working concentration in the appropriate Kinase Buffer. All ATP Solutions were diluted to a 4× working concentration in Kinase Buffer (50 mM HEPES pH 7.5, 0.01% BRIJ-35, 10 mM MgCl2, 1 mM EGTA). The apparent ATP Km was previously determined using a Z′-LYTE assay. The Development Reagent was diluted in Development Buffer.
(§2) The inhibition activities of compounds were determined in biochemical assays using single concentration (1.0 μM) measurements. The results were provided as percent inhibition values.

MET (cMet) = MET (cMet) (Homo sapiens, UniProt P08581)
Sequence of MET (cMet) (P08581 25-1390): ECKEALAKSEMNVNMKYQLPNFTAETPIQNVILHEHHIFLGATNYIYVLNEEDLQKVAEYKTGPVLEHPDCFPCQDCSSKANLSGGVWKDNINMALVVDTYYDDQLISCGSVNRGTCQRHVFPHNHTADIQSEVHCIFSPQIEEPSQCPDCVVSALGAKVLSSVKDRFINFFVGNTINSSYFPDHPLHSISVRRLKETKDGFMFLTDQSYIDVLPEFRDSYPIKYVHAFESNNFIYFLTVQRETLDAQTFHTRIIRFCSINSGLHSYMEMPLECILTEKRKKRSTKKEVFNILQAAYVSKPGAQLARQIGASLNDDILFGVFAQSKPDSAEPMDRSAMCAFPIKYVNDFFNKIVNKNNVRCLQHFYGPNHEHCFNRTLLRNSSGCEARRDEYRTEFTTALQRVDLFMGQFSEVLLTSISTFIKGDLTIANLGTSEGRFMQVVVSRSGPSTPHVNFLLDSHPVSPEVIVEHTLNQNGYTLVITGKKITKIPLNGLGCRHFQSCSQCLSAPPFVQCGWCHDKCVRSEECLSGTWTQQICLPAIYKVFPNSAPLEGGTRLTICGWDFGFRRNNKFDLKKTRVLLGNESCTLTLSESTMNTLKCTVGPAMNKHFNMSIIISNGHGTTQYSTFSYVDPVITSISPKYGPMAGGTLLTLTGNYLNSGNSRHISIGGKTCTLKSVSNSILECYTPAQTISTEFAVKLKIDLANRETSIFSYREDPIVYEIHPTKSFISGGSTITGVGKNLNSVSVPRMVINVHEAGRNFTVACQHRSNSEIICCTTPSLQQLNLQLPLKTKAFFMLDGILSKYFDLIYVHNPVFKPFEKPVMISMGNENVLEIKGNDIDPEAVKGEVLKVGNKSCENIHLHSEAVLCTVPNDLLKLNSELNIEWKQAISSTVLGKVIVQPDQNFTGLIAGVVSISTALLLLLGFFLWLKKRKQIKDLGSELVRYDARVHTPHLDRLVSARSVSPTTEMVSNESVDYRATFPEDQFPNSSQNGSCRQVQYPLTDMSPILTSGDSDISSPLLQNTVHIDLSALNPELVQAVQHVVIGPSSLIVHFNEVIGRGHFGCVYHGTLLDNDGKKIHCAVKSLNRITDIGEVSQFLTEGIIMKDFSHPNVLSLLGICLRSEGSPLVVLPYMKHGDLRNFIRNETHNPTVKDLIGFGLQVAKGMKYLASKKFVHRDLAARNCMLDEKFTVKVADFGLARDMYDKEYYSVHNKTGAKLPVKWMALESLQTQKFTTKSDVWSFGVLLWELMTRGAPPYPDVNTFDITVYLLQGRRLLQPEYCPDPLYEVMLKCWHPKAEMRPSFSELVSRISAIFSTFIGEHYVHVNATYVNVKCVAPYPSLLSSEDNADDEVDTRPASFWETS
Method: as §1, §2

AXL = target: T2, AXL (Homo sapiens, UniProt P30530)
T2 sequence (P30530 26-894): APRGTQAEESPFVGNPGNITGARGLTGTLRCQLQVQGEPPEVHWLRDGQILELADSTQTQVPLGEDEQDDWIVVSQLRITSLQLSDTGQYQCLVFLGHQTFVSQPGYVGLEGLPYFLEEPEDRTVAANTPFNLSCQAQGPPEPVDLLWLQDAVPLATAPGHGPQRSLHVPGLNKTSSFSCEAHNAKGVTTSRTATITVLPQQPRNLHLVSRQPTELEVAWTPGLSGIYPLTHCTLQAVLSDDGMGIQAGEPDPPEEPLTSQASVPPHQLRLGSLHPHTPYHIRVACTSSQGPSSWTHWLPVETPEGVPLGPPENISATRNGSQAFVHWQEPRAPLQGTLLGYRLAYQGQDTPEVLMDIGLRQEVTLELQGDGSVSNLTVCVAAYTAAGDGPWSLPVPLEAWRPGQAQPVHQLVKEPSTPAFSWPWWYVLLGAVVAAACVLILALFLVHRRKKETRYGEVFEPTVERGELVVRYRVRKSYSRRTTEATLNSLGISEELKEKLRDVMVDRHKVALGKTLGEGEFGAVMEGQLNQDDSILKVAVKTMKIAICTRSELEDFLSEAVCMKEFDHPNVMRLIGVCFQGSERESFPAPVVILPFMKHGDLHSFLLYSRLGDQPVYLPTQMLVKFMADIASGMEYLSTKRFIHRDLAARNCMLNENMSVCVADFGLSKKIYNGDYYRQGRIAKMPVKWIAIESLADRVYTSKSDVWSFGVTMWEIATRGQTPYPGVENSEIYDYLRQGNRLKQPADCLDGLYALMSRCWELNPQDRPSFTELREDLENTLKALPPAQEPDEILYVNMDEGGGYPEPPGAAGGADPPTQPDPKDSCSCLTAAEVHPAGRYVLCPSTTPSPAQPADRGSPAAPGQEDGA
Method: as §1, §2

| SMILES | inhibition at 1 µM (MERTK (cMER)) [%] | inhibition at 1 µM (MET (cMet)) [%] | inhibition at 1 µM (AXL) [%] | IC50 (MERTK (cMER)) [nM] | IC50 (MET (cMet)) [nM] | IC50 (AXL) [nM] |
| --- | --- | --- | --- | --- | --- | --- |
| COc1cc2nccc(Oc3ccc(NC(=O)C4(NC(=O)c5ccc(F)cc5)CC4)cc3F)c2cc1OC [Cbo-02, N-(1-((4-((6,7-diMethoxyquinolin-4-yl)oxy)-3-fluorophenyl)carbamoyl)cyclopropyl)-4-fluorobenzamide] | 100 | 100 | 91 | – | – | – |
| COc1cc2nccc(Oc3ccc(NC(=O)C4(NC(=O)c5ccc(F)cc5)CC4)cc3F)c2cc1Oc1ccc(N)cc1F [Cbo-10] | 95 | 95 | 98 | – | – | – |
| COc1cc2nccc(Oc3ccc(NC(=O)C4(NC(=O)c5ccc(F)cc5)CC4)cc3F)c2cc1Oc1c(F)cc(N)cc1F [Cbo-14] | 97 | 97 | 96 | – | – | – |
| COc1cc2nccc(Oc3ccc(NC(=O)C4(C(=O)Nc5ccc(F)cc5)CC4)cc3F)c2cc1Oc1ccc(N)cc1F [Cbo-23] | 98 | 98 | 106 | 3.72 | 35.2 | 5.42 |
| CNC(=O)c1cc2c(Oc3ccc(NC(=O)C4(C(=O)Nc5ccc(F)cc5)CC4)cc3)ccnc2cc1OC [Zanzalintinib, reference compound] | – | – | – | 6.96 | 4.26 | 1.41 |
